The source of these data is patent US6472391B2, “Nitrogen-containing heterocyclic compounds” (Millennium Pharmaceuticals, Inc., priority 1996, dated 2002).

The term melting point denotes the temperature of the solid-liquid transition.

`COc1cc2cc(Cl)nc(N3CCN(C(=O)Nc4ccc([N+](=O)[O-])cc4)CC3)c2cc1OC` [Compound 114, 4-(3-Chloro-6,7-dimethoxy-1-isoquinolyl)-N-(4-nitrophenyl)-1-piperazinecarboxamide] returned a melting point of 227 to 228 °C.
The same measure for `COc1cc2ncnc(N3CCN(C(=S)Nc4ccc(C)cc4)CC3)c2cc1OC` [Compound 146, 4-(6,7-Dimethoxy-4-quinazolinyl)-N-(4-tolyl)-1-piperazinethiocarboxamide]: 204 to 205 °C; for `CCOc1cc2c(N3CCN(C(=S)NCc4ccccc4)CC3)ncnc2cc1OC` [Compound 348, N-Benzyl-4-(6-ethoxy-7-methoxy-4-quinazolinyl)-1-piperazinethiocarboxamide]: 170 to 171 °C; for `COc1cc2ncnc(N3CCN(C(=S)NCc4ccc(Br)cc4)CC3)c2cc1OC` [Compound 185, N-(4-Bromobenzyl)-4-(6,7-dimethoxy-4-quinazolinyl)-1-piperazinethiocarboxamide]: 217 to 218 °C.
The same measure for `COc1ccc(NC(=O)N2CCN(c3ncnc4cc(OC)c(OC)cc34)CC2)c(OC)c1` [Compound 64, N-(2,4-Dimethoxyphenyl)-4-(6,7-dimethoxy-4-quinazolinyl)-1-piperazinecarboxamide]: 187 to 188 °C; for `Fc1ccc2ncnc(N3CCN(C(=S)NCc4cccnc4)CC3)c2c1` [Compound 299, 4-(6-Fluoro-4-quinazolinyl)-N-(3-picolyl)-1-piperazinethiocarboxamide]: 170 to 172 °C.
The same measure for `COc1cc2c(N3CCN(C(=O)Nc4ccc(C#N)cc4)CC3)ncnc2cc1C` [Compound 334, N-(4-Cyanophenyl)-4-(6-methoxy-7-methyl-4-quinazolinyl)-1-piperazinecarboxamide]: 242 to 243 °C; for `COc1ccc(CNC(=S)N2CCN(c3ncnc4cc(OC)c(OC)cc34)CC2)cc1` [Compound 199, 4-(6,7-Dimethoxy-4-quinazolinyl)-N-(4-methoxybenzyl)-1-piperazinethiocarboxamide]: 201 to 204 °C.
In turn, `COc1cc2ncnc(N3CCN(C(=S)NC(=O)c4ccc(Cl)cc4)CC3)c2cc1OC` [Compound 179, N-(4-Chlorobenzoyl)-4-(6,7-dimethoxy-4-quinazolinyl)-1-piperazinethiocarboxamide] showed a melting point of 166 to 168 °C.
For the compound `COc1cc2ncnc(N3CCN(C(=O)NCCc4ccc(Br)cc4)CC3)c2cc1OC` [Compound 120, N-[2-(4-Bromophenyl)ethyl]-4-(6,7-dimethoxy-4-quinazolinyl)-1-piperazinecarboxamide], the melting point fell in the range of 174 to 175 °C.
With `COc1cc2ncnc(N3CCN(C(=O)Nc4ccc(F)c([N+](=O)[O-])c4)CC3)c2cc1OC` [Compound 81, 4-(6,7-Dimethoxy-4-quinazolinyl)-N-(4-fluoro-3-nitrophenyl)-1-piperazinecarboxamide] the figure was 243 to 245 °C; with `S=C(NCc1ccccc1)N1CCN(c2ccnc3ccc(Cl)cc23)CC1` [Compound 400, N-Benzyl-4-(6-chloro-4-quinolyl)-1-piperazinethiocarboxamide], 173 to 174 °C; with `CCn1c(=O)[nH]c2cc3c(N4CCN(C(=O)Nc5ccc(Oc6ccccc6)cc5)CC4)ncnc3cc21` [Compound 123, 4-(3-Ethyl-1,3-dihydro-2-oxo-2H-imidazo[4,5-g]quinazolin-8-yl)-N-(4-phenoxyphenyl)-1-piperazinecarboxamide], 248 to 251 °C.
The same measure for `COc1cc2ncnc(N3CCN(C(=O)N[C@@H](C)c4ccccc4)CC3)c2cc1OC` [Compound 127, (S)-4-(6,7-Dimethoxy-4-quinazolinyl)-N-(1-phenylethyl)-1-piperazinecarboxamide]: 191 to 192 °C; for `COc1cc2ncnc(N3CCN(C(=S)NCCc4ccccc4)CC3)c2cc1OC` [Compound 6, 4-(6,7-Dimethoxy-4-quinazolinyl)-N-(2-phenylethyl)-1-piperazinethiocarboxamide]: 76 to 80 °C.
With `COc1cc2ncnc(N3CCN(C(=O)Nc4ccc(F)cc4)CC3)c2cc1OC` [Compound 36, 4-(6,7-Dimethoxy-4-quinazolinyl)-N-(4-fluorophenyl)-1-piperazinecarboxamide] the figure was 198 to 202 °C; with `COc1cc2ccnc(N3CCN(C(=O)Nc4ccc([N+](=O)[O-])cc4)CC3)c2cc1OC` [Compound 113, 4-(6,7-Dimethoxy-1-isoquinolyl)-N-(4-nitrophenyl)-1-piperazinecarboxamide], 247 to 248 °C.
The compound `CCCCOC(=O)c1ccc(NC(=O)N2CCN(c3ncnc4cc(OC)c(OC)cc34)CC2)cc1` [Compound 90, N-(4-Butoxycarbonylphenyl)-4-(6,7-dimethoxy-4-quinazolinyl)-1-piperazinecarboxamide] displayed a melting point of 226 to 227 °C.
The same measure for `COc1cc2ncnc(N3CCN(C(=O)Nc4ccc(CN(C)C)cc4)CC3)c2cc1OC` [Compound 227, 4-(6,7-Dimethoxy-4-quinazolinyl)-N-[4-(N,N-dimethylaminomethyl)phenyl]-1-piperazinecarboxamide]: 213 to 215 °C; for `COc1cc2ncnc(N3CCN(C(=O)Nc4cccc(C(C)=O)c4)CC3)c2cc1OC` [Compound 86, N-(3-Acetylphenyl)-4-(6,7-dimethoxy-4-quinazolinyl)-1-piperazinecarboxamide]: 241 to 245 °C; for `COc1cc2ncnc(N3CCN(C(=S)NCC(=O)c4ccccc4)CC3)c2cc1OC` [Compound 445, 4-(6,7-Dimethoxy-4-quinazolinyl)-N-phenacyl-1-piperazinethiocarboxamide]: 99 to 100 °C.
The same measure for `COC(=O)c1scc(C)c1NC(=S)N1CCN(c2ncnc3cc(OC)c(OC)cc23)CC1` [Compound 261, 4-(6,7-Dimethoxy-4-quinazolinyl)-N-(2-methoxycarbonyl-4-methyl-3-thienyl)-1-piperazinethiocarboxamide]: 113 to 116 °C.
`Cc1cccc2ncnc(N3CCN(C(=S)NCc4ccccc4)CC3)c12` [Compound 288, N-Benzyl-4-(5-methyl-4-quinazolinyl)-1-piperazinethiocarboxamide] displayed a melting point of 165 to 167 °C.
With `COc1cc2ncnc(N3CCN(C(=S)Nc4cccc(C)c4)CC3)c2cc1OC` [Compound 145, 4-(6,7-Dimethoxy-4-quinazolinyl)-N-(3-tolyl)-1-piperazinethiocarboxamide] the figure was 199 to 201 °C; with `COc1cc2ncnc(N3CCN(C(=S)NCc4ccc(N(C)C)cc4)CC3)c2cc1OC` [Compound 224, 4-(6,7-Dimethoxy-4-quinazolinyl)-N-(4-dimethylaminobenzyl)-1-piperazinethiocarboxamide], 177 to 178 °C.
With `COc1ccc2c(N3CCN(C(=S)NCc4cccnc4)CC3)ncnc2c1OC.Cl` the figure was 208 to 209 °C; with `COc1cc2ncnc(N3CCN(C(=S)Nc4ccc(C(=O)c5ccccc5)cc4)CC3)c2cc1OC` [Compound 88, N-(4-Benzoylphenyl)-4-(6,7-dimethoxy-4-quinazolinyl)-1-piperazinethiocarboxamide], 222 to 223 °C; with `COc1cc2ncnc(N3CCN(C(=O)N(C)c4ccccc4)CC3)c2cc1OC` [Compound 137, 4-(6,7-Dimethoxy-4-quinazolinyl)-N-methyl-N-phenyl-1-piperazinecarboxamide], 187 to 188 °C.
As for `COc1cc2ncnc(N3CCN(C(=O)Nc4cccc(F)c4)CC3)c2cc1OC` [Compound 35, 4-(6,7-Dimethoxy-4-quinazolinyl)-N-(3-fluorophenyl)-1-piperazinecarboxamide], the melting point is 214 to 220 °C.
With `CCOC(=O)c1cccc(NC(=O)N2CCN(c3ncnc4cc(OC)c(OC)cc34)CC2)c1` [Compound 248, 4-(6,7-Dimethoxy-4-quinazolinyl)-N-(3-ethoxycarbonylphenyl)-1-piperazinecarboxamide] the figure was 187 to 188 °C; with `COc1ccc(NC(=O)N2CCN(c3ncnc4cc(OC)c(OC)cc34)CC2)cc1` [Compound 56, 4-(6,7-Dimethoxy-4-quinazolinyl)-N-(4-methoxyphenyl)-1-piperazinecarboxamide], 221 to 223 °C.
With `COc1cc2ncnc(N3CCN(C(=O)NCCc4cccs4)CC3)c2cc1OC` [Compound 96, 4-(6,7-Dimethoxy-4-quinazolinyl)-N-[2-(2-thienyl)ethyl]-1-piperazinecarboxamide] the figure was 184 to 185 °C; with `C=Cc1ccc(NC(=O)N2CCN(c3ncnc4cc(OC)c(OC)cc34)CC2)cc1` [Compound 164, 4-(6,7-Dimethoxy-4-quinazolinyl)-N-(4-vinylphenyl)-1-piperazinecarboxamide], 214 to 216 °C.
The same measure for `COc1cc2ncnc(N3CCN(C(=O)Nc4ccc(Cl)cc4[N+](=O)[O-])CC3)c2cc1OC` [Compound 234, N-(4-Chloro-2-nitrophenyl)-4-(6,7-dimethoxy-4-quinazolinyl)-1-piperazinecarboxamide]: 205 to 206 °C; for `COc1cc2ncnc(N3CCN(C(=S)Nc4cccc(NC(C)=O)c4)CC3)c2cc1OC` [Compound 226, N-(3-Acetamidophenyl)-4-(6,7-dimethoxy-4-quinazolinyl)-1-piperazinethiocarboxamide]: 207 to 208 °C.
`COc1cc2ncnc(N3CCCN(C(=O)Nc4ccc(Oc5ccccc5)cc4)CC3)c2cc1OC` [Compound 435, 4-(6,7-Dimethoxy-4-quinazolinyl)-N-(4-phenoxyphenyl)-1-homopiperazinecarboxamide] showed a melting point of 93 to 96 °C.
With `COc1ccc(CCNC(=S)N2CCN(c3ncnc4cc(OC)c(OC)cc34)CC2)cc1OC` [Compound 206, N-[2-(3,4-Dimethoxyphenyl)ethyl]-4-(6,7-dimethoxy-4-quinazolinyl)-1-piperazinethiocarboxamide] the figure was 98 to 100 °C; with `CCOc1cc2c(N3CCN(C(=O)Nc4ccc(C#N)cc4)CC3)ncnc2cc1OC` [Compound 347, N-(4-Cyanophenyl)-4-(6-ethoxy-7-methoxy-4-quinazolinyl)-1-piperazinecarboxamide], 178 to 179 °C.
